# Source: patent publication US9670223B2, “Compounds with super-aspirin effects” (SOLVOTRIN THERAPEUTICS LTD., priority 2011, dated 2017)
# Entries after “also recorded” stand apart in the source; their conditions may differ. Like-named read-outs stand apart in the source and are kept apart here.
# Assays:
# TxB2 = TxB2 suppression after single oral gavage dose; format: in vivo, cynomolgus monkey; conditions: Phase 2A, single oral gavage, ST0702 9.6 mg/kg, aspirin 4.2 mg/kg, 1 and 24 hours post dosing
# [1] = Plasma pharmacokinetics of aspirin and metabolites after single oral gavage dose; format: in vivo, cynomolgus monkey; conditions: cynomolgus monkey, plasma, read-out: modeled AUC of Aspirin
# Method: The objectives of this study are to determine the comparative clinical efficacy as determined by TxB2 suppression with single oral gavage dose administration of Aspirin, ST0702 and ST0702 Micronised to the cynomolgus monkey. Aspirin pharmacokinetics were compared using Area Under the Curve (AUC) calculations.
# The objectives of this study are to determine the comparative pharmacokinetics of ST0702 at 9.6 and 4.8 mg/Kg with single oral gavage dose administration to the cynomolgus monkey and to determine dose-response effects.
# Although the half life of the Isosorbide 2 salicylate 5 nicotinate metabolite is very short in-vitro, we investigated the serum taken from Cynomologus Monkeys participating in Study 2B above. The comparative pharmacokinetics of Isosorbide 2 salicylate 5 nicotinate from Monkeys receiving a single oral gavage dose of micronized ST0702 at 9.6 and 4.8 mg/Kg were evaluated. The concentrations of the breakdown products of ISANA were quantified using LCMS methods.
# Animals are acclimated to the oral gavage procedure for at least 3 days prior to the commencement of dose formulation administration. Deionized water is administered by oral gavage using a disposable catheter attached to a plastic syringe at a dose volume of 5 mL/kg. Animals are treated at approximately the same time on each dosing day. Dose formulations are administered by oral gavage using a disposable catheter attached to a plastic syringe. Following each daily dose, the gavage tube is rinsed with 6 mL of Ultra Pure water into the animal's stomach. Each animal will be dosed with a clean gavage tube on each dosing occasion. The dosing volume is 10 mL/kg. Each actual volume administered will be based on the most recent practical body weight of each animal. The dose formulations will be stirred continuously during dose administration.
# Samples are mixed gently and placed on crushed wet ice until centrifugation, which are carried out as soon as practical. The samples are centrifuged for approximately 10 minutes in a refrigerated centrifuge (approximately 4° C.) at 2700 rpm. The resultant plasma are separated, transferred to uniquely labeled clear polypropylene tubes, and frozen immediately over dry ice and transferred to a freezer set to maintain −80° C. The plasma samples are transferred to the bioanalytical laboratory at the Testing Facility.
# Plasma samples are analyzed for concentration of Aspirin, Salicylic Acid and Nicotinic Acid using a qualified analytical procedure. Analysis are performed by LC MS/MS under Analytical Procedure. Data collection is performed using Analyst from AB Sciex. […]
# 59M cells [2] = test: Tumour cell-induced platelet aggregation (TCIPA), static conditions, 59M; format: cell-based, human; conditions: for inhibition of TCIPA induced by 59M: static, WP, 300 and 500 μM, 59M 1×10^3/ml
# Source text: ISAS meanwhile is hydrolysed to aspirin and salicylic acid. […] The structure of platelet-tumor cell aggregates was studied using phase-contrast microscopy (Alonso-Escolano et al., 2004; Jurasz et al., 2001). […] Aliquots of each sample were then taken for phase-contrast microscopy examination using an Olympus CKX41 microscope (Olympus America Inc., […].). Photomicrographs were captured using a digital camera and MicroFire (Olympus America Inc.) software (Alonso-Escolano et al., 2004; Jurasz et al., 2001).
# washed platelet samples [3] = test: Collagen-induced platelet aggregation in the TCIPA studies (washed platelets); format: cell-based, human; conditions: Homo sapiens, Platelet; aspirin 300 μM, n=4
# washed platelet samples [4] = test: Arachidonic acid-induced platelet aggregation; format: cell-based, human; conditions: n=4
# [5] = system: platelet rich plasma (PRP); test: Collagen-induced platelet aggregation in platelet rich plasma (light aggregometry); format: cell-based; conditions: Homo sapiens, collagen (5 µg/mL), values without †, read-out: IC50 (PRP, 95% CI)
# [6] = cited from earlier work; for % Aspirin release: in human plasma, From Reference 7
# 59M cells [7] = test: Flow-mediated TCIPA using an ultrasound standing wave trap; format: cell-based, human; conditions: 500 μM, 59M cell cluster
# Source text: The ultrasound trap had three essential features: a transducer (Ferroperm, Kvistgard, Denmark) in a housing of radial symmetry, an aqueous phase and a reflector that provided optical access from above. The trap was driven with a function generator (Hewlett Packard 33120A, UK). Microscopic observation occurred with a fast, high-resolution XM10 camera (Soft Imaging System, SIS, GmbH) mounted on an Olympus BX51M reflection epi-fluorescence microscope. Images were captured by a standard PC equipped with the Cell-D image acquisition software (Soft Imaging System, SIS, GmbH).
# The experimental procedure was as follows: 59M cells were introduced into the trap, the acoustic field (2.13 MHz, 0.85 MPa) was initiated and cell clusters were allowed to form. Clusters remained levitated in suspension for 10 min. Washed platelets (2.5×10^8/ml) were introduced into the trap at a flow rate of 3 μl/min. Perfusion of washed platelets around the cluster proceeded following initial adhesion of platelets to the periphery of the cluster.
# To study the effect of aspirin and aspirin prodrugs in TCIPA, washed platelets were pre-incubated for 10 min at room temperature with the inhibitors: aspirin, nicotinate, ISAS, ISMNA, ortho and meta (all at a concentration of 500 μM), prior to their introduction into the ultrasound trap. […] The cell cluster-platelet aggregate remained under microscopic observation for further 10 min (the upper time limit established in the current study) under continuous flow conditions. Further experiments were performed with ST0702 salicylate (500 μM).
Structure (SMILES),"TxB2 suppression (TxB2 levels as percentage of baseline), in words (TxB2)","AUC ([1]; oral, Phase 2B text, Aspirin 4.2 mg/Kg dose)","AUC ([1]; Phase 2A, Aspirin 4.2 mg/Kg oral)",inhibition of TCIPA induced by 59M (59M cells [2]),inhibition of TCIPA induced by 59M (59M cells [2]; listed as aspirin),inhibition at 300 µM (washed platelet samples [3]),effect on arachidonic acid (100 μM)-induced aggregation (washed platelet samples [4]),IC50 [5],% Aspirin release [6],effect on TCIPA when tumour cells were preincubated with compound (59M cells [2]; 59M cells preincubated),inhibition of TCIPA under flow conditions (platelet-tumour cell disruption) (59M cells [7]),"aspirin released in vitro ([6]; human plasma solution / in-vitro, of available (stoichiometric) aspirin, listed as ISANA)"
CC(=O)Oc1ccccc1C(=O)O [Aspirin],effective,923 ng·h/mL,870 ng·h/mL,did not exert any significant effect,did not exert a significant effect,56 ± 7%,abolished,90 µM,100%,–,–,–
"CC(=O)Oc1ccccc1C(=O)O[C@H]1CO[C@H]2[C@@H]1OC[C@H]2OC(=O)c1cccnc1 [ST0702, isosorbide-2-aspirinate-5-nicotinate]",effective,–,–,consistently inhibited TCIPA,–,–,–,–,30-45%,no effect on TCIPA,significantly arrested TCIPA; also recorded: effectively inhibit,40%
